The record followed here is patent publication US20050197350A1, “Novel quinoline, tetrahydroquinazoline, and pyrimidine derivatives and methods of treatment related to the use thereof” (TAISHO PHARMACEUTICAL CO., LTD., priority 2003, published 2005).

One test relates to MCH receptors. The experiment in a line: MCH receptor activity class (method not given). To be noted: MCH receptor activity class 1-3 (percent of control at 10^-7 M or IC50).
In the case of `Cc1cccc(C(C)(C)C)c1NC(=O)NC[C@H]1CC[C@@H](Nc2nccc(N(C)C)n2)CC1` [compound 2429, N-(2-tert-butyl-6-methylphenyl)-N′-[(cis-4-{[4-(dimethylamino)pyrimidin-2-yl]amino}cyclohexyl)methyl]urea], the class is on record as 1 (Class 1: The value of percent of control at 10^−7 M was less than 40% or the value of IC50 was less than 50 nM.).
Same read-out and setting: then `Cc1cccc(C(C)C)c1NC(=S)N[C@H]1CC[C@@H](Nc2nccc(N(C)C)n2)CC1` [compound 2348], with 3 (Class 3 The value of percent of control at 10^−7 M was more than 60% or the value of IC50 was more than 200 nM.); and `CC(C)c1ccccc1NC(=S)N[C@H]1CC[C@@H](Nc2nccc(N(C)C)n2)CC1` [compound 2326], with 3 (Class 3 The value of percent of control at 10^−7 M was more than 60% or the value of IC50 was more than 200 nM.).
The same measure, in the same setting: to `CN(C)c1ccnc(N[C@H]2CC[C@@H](CNC(=O)NC(c3ccccc3)c3ccccc3)CC2)n1` [compound 2435, N-[(cis-4-{[4-(dimethylamino)pyrimidin-2-yl]amino}cyclohexyl)methyl]-N′-(diphenylmethyl)urea] belongs 1 (Class 1: The value of percent of control at 10^−7 M was less than 40% or the value of IC50 was less than 50 nM.).

The test is the same for the next values; noted with them: MCH receptor; class by percent of control at 10^-7 M or IC50.
`CC(Oc1ccccc1)C(=O)N[C@H]1CC[C@@H](Nc2cc(N(C)C)c3ccccc3n2)CC1` (relative stereo) [compound 49, N-(cis-4-{[4-(dimethylamino)quinolin-2-yl]amino}cyclohexyl)-2-phenoxypropanamide]: the class was 1 (Class 1: The value of percent of control at 10^−7 M was less than 40% or the value of IC50 was less than 50 nM.).
On the same count and under the same terms, then `CN(C)c1cc(N[C@H]2CC[C@@H](CNC(=O)c3cc(F)c(Cl)cc3Cl)CC2)nc2ccccc12` [compound 166], with 3 (Class 3 The value of percent of control at 10^−7 M was more than 60% or the value of IC50 was more than 200 nM.); and `Cc1cc(C(=O)NC[C@H]2CC[C@@H](Nc3cc(N(C)C)c4ccccc4n3)CC2)ccc1F` [compound 208, N-[(cis-4-{[4-(dimethylamino)quinolin-2-yl]amino}cyclohexyl)methyl]-4-fluoro-3-methylbenzamide], with 3 (Class 3 The value of percent of control at 10^−7 M was more than 60% or the value of IC50 was more than 200 nM.); and `CCCCNC(=S)N[C@H]1CC[C@@H](Nc2nc3c(c(N(C)C)n2)CCCC3)CC1` [compound 1930], with 3 (Class 3 The value of percent of control at 10^−7 M was more than 60% or the value of IC50 was more than 200 nM.).

Still in this test, the particulars now being: activity class 1-3: percent of control at 10^-7 M or IC50.
As for `CC(NC(=O)N[C@H]1CC[C@@H](Nc2nc3c(c(N(C)C)n2)CCCC3)CC1)c1cccc2ccccc12` (relative stereo) [compound 1704], the class is listed as 1 (Class 1: The value of percent of control at 10^−7 M was less than 40% or the value of IC50 was less than 50 nM.).
As to `C=CCOC(=O)NC[C@H]1CC[C@@H](Nc2cc(N(C)C)c3ccccc3n2)CC1` [compound 1570], the class is 3 (Class 3 The value of percent of control at 10^−7 M was more than 60% or the value of IC50 was more than 200 nM.).

The test is the same for the next values; noted with them: activity class per percent of control at 10^-7 M or IC50.
Consider `Cc1cccc(C(=O)N[C@H]2CC[C@@H](Nc3nc4c(c(N(C)C)n3)CCCC4)CC2)c1N` [compound 1058], for which the class is reported as 3 (Class 3 The value of percent of control at 10^−7 M was more than 60% or the value of IC50 was more than 200 nM.).
Still for that read-out and setting: then `CN(C)c1cc(N[C@H]2CC[C@@H](NCc3cccc4ccccc34)CC2)nc2ccccc12` [compound 1119], with 3 (Class 3 The value of percent of control at 10^−7 M was more than 60% or the value of IC50 was more than 200 nM.); and `COc1ccc(CN[C@H]2CC[C@@H](Nc3cc(N(C)C)c4ccccc4n3)CC2)c2ccccc12` [compound 1089], with 3 (Class 3 The value of percent of control at 10^−7 M was more than 60% or the value of IC50 was more than 200 nM.); and `CN(C)c1cc(N[C@H]2CC[C@@H](CNCc3ccc(O)cc3)CC2)nc2ccccc12` [compound 1154], with 3 (Class 3 The value of percent of control at 10^−7 M was more than 60% or the value of IC50 was more than 200 nM.).
Still for that read-out and setting: to `CN(C)c1cc(N[C@H]2CC[C@@H](CNCc3ccc(O)cc3Cl)CC2)nc2ccccc12` [compound 1146] belongs 3 (Class 3 The value of percent of control at 10^−7 M was more than 60% or the value of IC50 was more than 200 nM.).

Still in this test, the particulars now being: class 1-3 by percent of control at 10^-7 M or IC50.
Turning to `CN(C)c1nc(N[C@H]2CC[C@@H](CNC(=O)c3ccc(F)c(F)c3)CC2)nc2c1CCCC2` [compound 595], the class is 3 (Class 3 The value of percent of control at 10^−7 M was more than 60% or the value of IC50 was more than 200 nM.).
On to `CN(C)c1nc(N[C@H]2CC[C@@H](NC(=O)c3cc(-c4ccc(Cl)cc4)oc3C(F)(F)F)CC2)nc2c1CCCC2` [compound 576], for which the class is on record as 3 (Class 3 The value of percent of control at 10^−7 M was more than 60% or the value of IC50 was more than 200 nM.).
Still for that read-out and setting: then `CN(C)c1nc(N[C@H]2CC[C@@H](NC(=O)Cc3ccc(F)cc3)CC2)nc2c1CCCC2` [compound 504], with 1 (Class 1: The value of percent of control at 10^−7 M was less than 40% or the value of IC50 was less than 50 nM.).

Staying with this test, now noted: class by percent of control at 10^-7 M or IC50.
`CN(C)c1ccnc(N[C@H]2CC[C@@H](NC(=O)C3CCCC3)CC2)n1` [compound 343]: the class is recorded as 3 (Class 3 The value of percent of control at 10^−7 M was more than 60% or the value of IC50 was more than 200 nM.).
Same read-out and setting: to `CCOc1ccc(OCC)c(CNC[C@H]2CC[C@@H](Nc3nc4c(c(N(C)C)n3)CCCC4)CC2)c1` [compound 1411] belongs 1 (Class 1: The value of percent of control at 10^−7 M was less than 40% or the value of IC50 was less than 50 nM.); to `COc1cc(CC(=O)N[C@H]2CC[C@@H](Nc3nccc(N(C)C)n3)CC2)ccc1OCc1ccccc1` [compound 876], 3 (Class 3 The value of percent of control at 10^−7 M was more than 60% or the value of IC50 was more than 200 nM.); to `C=CCOc1ccccc1CNC[C@H]1CC[C@@H](Nc2nc3c(c(N(C)C)n2)CCCC3)CC1` [compound 1419], 3 (Class 3 The value of percent of control at 10^−7 M was more than 60% or the value of IC50 was more than 200 nM.).
The same measure, in the same setting: to `CN(C)c1nc(N[C@H]2CC[C@@H](NC(=S)Nc3ccc(Oc4ccccc4)nc3)CC2)nc2c1CCCC2` [compound 2088] belongs 3 (Class 3 The value of percent of control at 10^−7 M was more than 60% or the value of IC50 was more than 200 nM.); to `COc1cc(CNC[C@H]2CC[C@@H](Nc3cc(N(C)C)c4ccccc4n3)CC2)cc(Br)c1OC` [compound 1189], 3 (Class 3 The value of percent of control at 10^−7 M was more than 60% or the value of IC50 was more than 200 nM.).
For `COC(=O)[C@H](CCSC)NC(=O)N[C@H]1CC[C@@H](Nc2cc(N(C)C)c3ccccc3n2)CC1` (relative stereo) [compound 2129], the class is reported as 3 (Class 3 The value of percent of control at 10^−7 M was more than 60% or the value of IC50 was more than 200 nM.).
The same measure, in the same setting: to `CN(C)c1ccnc(N[C@H]2CC[C@@H](NC(=O)Nc3ccc4c(c3)OCCCO4)CC2)n1` [compound 2254] belongs 3 (Class 3 The value of percent of control at 10^−7 M was more than 60% or the value of IC50 was more than 200 nM.); to `COc1cc(CN[C@H]2CC[C@@H](Nc3nccc(N(C)C)n3)CC2)cc(OC)c1` [compound 1221], 3 (Class 3 The value of percent of control at 10^−7 M was more than 60% or the value of IC50 was more than 200 nM.); to `CCCN(CCC)S(=O)(=O)c1ccc(C(=O)N[C@H]2CC[C@@H](Nc3nccc(N(C)C)n3)CC2)cc1` [compound 356, N-(cis-4-{[4-(dimethylamino)pyrimidin-2-yl]amino}cyclohexyl)-4-[(dipropylamino)sulfonyl]benzamide], 1 (Class 1: The value of percent of control at 10^−7 M was less than 40% or the value of IC50 was less than 50 nM.).
The same measure, in the same setting: then `COc1ccccc1NC(=S)N[C@H]1CC[C@@H](Nc2cc(N(C)C)c3ccccc3n2)CC1` [compound 2173], with 3 (Class 3 The value of percent of control at 10^−7 M was more than 60% or the value of IC50 was more than 200 nM.).
Still for that read-out and setting: to `COC(=O)[C@H](Cc1ccccc1)NC(=O)N[C@H]1CC[C@@H](Nc2cc(N(C)C)c3ccccc3n2)CC1` (relative stereo) [compound 2135] belongs 2 (Class 2: The value of percent of control at 10^−7 M was from 40% to 60% or the value of IC′50 was from 50 nM to 200 nM.).

The test is the same for the next values; noted with them: class by percent of control at 10^−7 M or IC50.
For `Cc1cnc(N[C@H]2CC[C@@H](NC(=O)N(C)c3ccc(Cl)cc3)CC2)nc1N(C)C` [compound 3027, N-(4-chlorophenyl)-N′-(cis-4-{[4-(dimethylamino)-5-methylpyrimidin-2-yl]amino}cyclohexyl)-N-methylurea], the class is listed as 1 (Class 1: The value of percent of control at 10^−7 M was less than 40% or the value of IC50 was less than 50 nM.).
As to `Cc1cnc(N[C@H]2CC[C@@H](NC(=O)c3ccc(C#N)cc3)CC2)nc1N(C)C` [compound 2909, 4-cyano-N-(cis-4-{[4-(dimethylamino)-5-methylpyrimidin-2-yl]amino}cyclohexyl)benzamide], the class is 1 (Class 1: The value of percent of control at 10^−7 M was less than 40% or the value of IC50 was less than 50 nM.).
For `Cc1cnc(N[C@H]2CC[C@@H](NC(=O)C(C)c3ccc(Cl)cc3)CC2)nc1N(C)C` (relative stereo) [compound 2874, 2-(4-chlorophenyl)-N-(cis-4-{[4-(dimethylamino)-5-methylpyrimidin-2-yl]amino}cyclohexyl)propanamide], the class is given as 1 (Class 1: The value of percent of control at 10^−7 M was less than 40% or the value of IC50 was less than 50 nM.).
On the same count and under the same terms, then `Cc1cnc(N[C@H]2CC[C@@H](C(=O)N[C@@H](C)c3cccc4ccccc34)CC2)nc1N(C)C` (relative stereo) [compound 2783, cis-4-{[4-(dimethylamino)-5-methylpyrimidin-2-yl]ainino}-N-[(1S)-1-(1-naphthyl)ethyl]cyclohexanecarboxamide], with 1 (Class 1: The value of percent of control at 10^−7 M was less than 40% or the value of IC50 was less than 50 nM.).
